In patent publication US20080234323A1, “Amorphous and Three Crystalline Forms of Rimonabant Hydrochloride” (priority 2005, published 2008):

Test: Solubility of different forms of Rimonabant hydrochloride in solvents
Type: physicochemical
Settings: at R.T.
Description: • All the forms were soluble in alcohols such as methanol, ethanol etc.

solubility in acetone: partly soluble | solubility in acetonitrile: partly soluble
Structure (SMILES): Cc1c(C(=O)NN2CCCCC2)nn(-c2ccc(Cl)cc2Cl)c1-c1ccc(Cl)cc1 [Form II, 5-(4-chlorophenyl)-1-(2,4-dichlorophenyl)-4-methyl-N-(piperidin-1-yl)pyrazole-3-carboxamide]
